Source: patent publication US20110232180A1, “Method of applying calcium magnesium acetate to affect growth of unwanted broadleaf weeds in lawn grasses” (priority 2010, published 2011)

What was measured:
[1] = system: environment, ducks and fish; details: cited from earlier work
violet weeds = assay: calcium magnesium acetate grains or triclopyr liquid applied to violet weeds in lawn grasses; format: in vivo
Source text: (§1) These are not mandatory steps, it simply helps reduce fall off of the grains on the leaves. Alternatively, without the binder and size reduction, the grains could rest by simple placement on the leaves of the weed.

broadleaf weeds = details: granular substance applied to the leaves of the weeds
Source text: A novel unknown use of calcium magnesium acetate is as an effective eliminator of certain broadleaf weeds which invade lawn grasses. When applying the granular substance to the leaves of the weeds, it can produce desired results, very quickly, much faster then many previously known toxic compositions. This method can work in as little as two days.
as §1

testosterone in men = details: by-product of triclopyr; cited from earlier work

Row | Compound | toxicity to the environment [1] | treatments needed to affect violet weeds (violet weeds; liquid form applied once a month to lawns with violet weeds) | time in which the method works on broadleaf weeds (broadleaf weeds) | effect on lawn grasses around or near the violet weeds (common lawn grasses; applied by the method (grains isolated on the target weed, limited amount)) | effect on lawn grasses (common lawn grasses; extreme over applications of the granular product) | time in which the grains eliminate / control violet weeds (violet weeds; grains applied to leaves of violet weeds in lawn) | effect on testosterone in men (testosterone in men)
1 | O=C(O)COc1nc(Cl)c(Cl)cc1Cl [triclopyr, reference compound] | slightly toxic to the environment, ducks and fish | several monthly treatments just to diminish part of the plant |  |  |  |  | 
2 | calcium magnesium acetate | non-toxic to the environment |  | two | little or no adverse affect | did affect common lawn grasses | two | 
3 | tricloropyridine |  |  |  |  |  |  | lower testosterone in men
